Measurements as given in publication PMC6848146, “Binding and structural analyses of potent inhibitors of the human Ca^2+/calmodulin dependent protein kinase kinase 2 (CAMKK2) identified from a collection of commercially-available kinase inhibitors” (Scientific Reports, 2019).

The molecules below were run against T1, CAMKK2-KD (kinase domain of CAMKK2) (Homo sapiens, UniProt Q96RR4) (assay: DSF thermal-shift screen, 384-well format). Details: 10 µM compound, 1 µM kinase, 0.1% DMSO, single measurement.
T1 construct: the protein kinase domain (amino acids 161–449); hexahistidine (6xHis), TEV-cleavable; made in house
Type: binding
Experimental: We employed a thermal-shift assay (Differential Scanning Fluorimetry, DSF)[19] to identify compounds that can bind to the kinase domain of CAMKK2 (CAMKK2-KD). Protein thermal denaturation curves (Fig. 1A,B) were used to calculate the denaturation midpoint temperature (Tm) for the kinase domain of CAMKK2 in the presence of ligands or vehicle only (DMSO). […] DSF screens were performed on purified CAMKK2-KD using a library of commercially available, chemically diverse, ATP-competitive, kinase inhibitors.
DSF experiments in 384-well format followed a protocol previously established at the SGC-UNICAMP and described elsewhere.
The compounds, previously solubilized in DMSO, were used at 10 µM final concentration and 0.1% DMSO. Plates were sealed using optically clear films and transferred to a QuantStudio 6 qPCR instrument (Applied Biosystems). […] Protein in 0.1% DMSO was used as a reference.
For both formats, experiments were performed in singlets.

T1 sequence (Q96RR4 161-449): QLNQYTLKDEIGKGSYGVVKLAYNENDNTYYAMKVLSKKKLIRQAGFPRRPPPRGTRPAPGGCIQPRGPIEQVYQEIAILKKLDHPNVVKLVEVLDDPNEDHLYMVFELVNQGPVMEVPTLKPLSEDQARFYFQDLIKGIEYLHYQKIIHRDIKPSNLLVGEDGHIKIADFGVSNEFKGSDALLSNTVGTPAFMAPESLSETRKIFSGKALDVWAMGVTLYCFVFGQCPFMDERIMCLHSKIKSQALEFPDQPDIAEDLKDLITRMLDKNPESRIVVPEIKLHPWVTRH

Structure (SMILES)	ΔTm [°C]	ΔTm at 10 µM [°C]
Cc1[nH]nc2ccc(-c3cncc(OC[C@@H](N)Cc4ccccc4)c3)cc12 [A-674563]	4.7	–
Cc1cc(CN2CCN(c3c(Br)cnc4nc(-c5ccc(N6CCN(C)CC6)cc5)[nH]c34)CC2)no1 [CCT137690]	4.7	–
Cc1nc(N)sc1-c1ccnc(Nc2ccc(N3CCOCC3)cc2)n1 [CYC116]	–	4.4
CO[C@@H](C(=O)N1Cc2n[nH]c(NC(=O)c3ccc(N4CCN(C)CC4)cc3)c2C1)c1ccccc1 [Danusertib]	–	5.1
CNc1nc(Nc2cnn([C@H]3CCN(C4COC4)C[C@@H]3F)c2Cl)ncc1C(F)(F)F [GNE-9605]	6.4	–
O=C1NC(=O)/C(=C/c2ccc3nccc(-c4ccncc4)c3c2)S1 [GSK1059615]	–	4.4
CCOC(=O)c1cnc2ccc(-c3cncc(NS(=O)(=O)c4ccccc4)c3)cn12 [HS-173]	4.2	–
CCS(=O)(=O)Nc1ccc2c(c1)/C(=C(/Nc1ccc(CN3CCCCC3)cc1)c1ccccc1)C(=O)N2 [Hesperadin]	–	7.3
CNC(=O)c1nn(C)c2c1C(C)(C)Cc1cnc(Nc3ccc(N4CCN(C)CC4)cc3)nc1-2 [Milciclib (PHA-848125), Milciclib]	–	7
Cc1[nH]c(/C=C2\C(=O)Nc3ccc(S(=O)(=O)Cc4c(Cl)cccc4Cl)cc32)c(C)c1C(=O)N1CCC[C@@H]1CN1CCCC1 [PHA-665752]	–	4.9
Cc1ccc([N+](=O)[O-])cc1S(=O)(=O)N(C)/N=C/c1cnc2ccc(Br)cn12 [PIK-75]	7.2	–
C1=C/COCc2cc(ccc2OCCN2CCCC2)Nc2nccc(n2)-c2cccc(c2)COC/1 [Pacritinib (SB1518), Pacritinib]	–	7.8

More lines, now with the values ahead:

ΔTm [°C]	ΔTm at 10 µM [°C]	Structure (SMILES)
–	4.3	Cc1cc(Nc2nc(N[C@@H](C)c3ccc(F)cc3)c(C#N)cc2F)[nH]n1 [AZ 960]
9.3	–	COc1cc(N2CCC(N)CC2)ccc1Nc1ncc(Cl)c(-c2c[nH]c3ccccc23)n1 [AZD3463]
–	4.1	C=CC(=O)Nc1cc(Nc2nccc(-c3cn(C)c4ccccc34)n2)c(OC)cc1N(C)CCN(C)C [AZD9291]
–	4.7	CCOc1ccn(-c2ccc(F)cc2)c(=O)c1C(=O)Nc1ccc(Oc2ccnc(N)c2Cl)c(F)c1 [BMS-777607]
–	5.1	O=C(NCCCNc1nc(Nc2cccc(NC(=O)N3CCCC3)c2)ncc1I)c1cccs1 [BX-795]
–	4.4	C=CC(=O)Nc1cccc(Nc2nc(Nc3ccc(N4CCN(C(C)=O)CC4)cc3OC)ncc2C(F)(F)F)c1 [CO-1686]
–	4.3	N#CCNC(=O)c1ccc(-c2ccnc(Nc3ccc(N4CCOCC4)cc3)n2)cc1 [CYT387]
–	8	Cc1cc(Nc2ncc(Cl)c(Nc3ccccc3S(=O)(=O)C(C)C)n2)c(OC(C)C)cc1C1CCNCC1 [LDK378]
–	4.3	Cc1cc(Nc2cc(CN3CCOCC3)c3nc(C)c(Cc4ccc(Cl)cc4F)n3n2)n[nH]1 [LY2784544]
–	6.2	CCN1CCN(Cc2ccc(Nc3ncc(F)c(-c4cc(F)c5nc(C)n(C(C)C)c5c4)n3)nc2)CC1 [LY2835219]
4.2	–	CN(c1ncccc1CNc1nc(Nc2ccc3c(c2)CC(=O)N3)ncc1C(F)(F)F)S(C)(=O)=O [PF-562271]
4.5	–	CS(=O)(=O)c1cccc(CNc2nc(Nc3ccc4c(c3)CCC(=O)N4)ncc2C(F)(F)F)c1 [PF-573228]
–	4.4	Cc1nc(Nc2[nH]nc3c2CN(C(=O)N[C@H](CN(C)C)c2ccccc2)C3(C)C)c2sccc2n1 [PF-3758309]
–	4.8	CCOc1cc2ncc(C#N)c(Nc3ccc(F)c(Cl)c3)c2cc1NC(=O)/C=C/CN(C)C [Pelitinib]
4.5	–	COc1cc(C(=O)NC2CCN(C)CC2)ccc1Nc1ncc2c(n1)N(C1CCCC1)CC(F)(F)C(=O)N2C [Ro3280]
–	4.7	CCS(=O)(=O)c1cccc(-c2cc(C(=O)NC3CCN(C)CC3)c(C)c3[nH]c4ncc(C)cc4c23)c1 [TAK-901]
4.8	–	C=CC(=O)Nc1cccc(Sc2nc(Nc3ccc(N4CCN(C)CC4)cc3)ncc2Cl)c1 [WZ8040]
